Experimental data: PMC6968685 (Journal of Enzyme Inhibition and Medicinal Chemistry, 2020)
Where a name gives a salt, the structure may show the parent alone. Read-outs that look alike come from different tables or passages of the source.

Columns and labels:
[1] = Cytotoxicity evaluation, MTT; format: cell-based, human; conditions: human
Method in brief: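 HepG2 hepatocarcinoma cells exposed to compound in duplicate, then viability measured by MTT reduction (0.5 mg/ml), formazan dissolved in DMSO and read at 570 nm against 630 nm. Viability expressed as percent of untreated cells; CC50 taken from dose-response curve, doxorubicin as positive control.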

[2] = test system: P. falciparum CQ-sensitive strain 3D7; experiment: In vitro antiplasmodial activity, SYBR Green I fluorescence-based method, strain 3D7; format: cell-based; conditions: Plasmodium falciparum, read-out: P. falciparum strains IC50 values, 3D7
Method in brief: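 P. falciparum 3D7 and W2 cultured in human erythrocytes in RPMI with 0.5% Albumax I at 37 °C, exposed 48 h to compounds tested […]. Parasite DNA read by SYBR Green I fluorescence (ex 485/em 535 nm); IC50 by non-linear regression, mean of three independent experiments.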

[3] = test system: Plasmodium telomeric sequence FPf8T G-quadruplex; experiment: FRET melting experiments, FPf8T; format: binding, P. falciparum; conditions: K+ conditions
Protocol: (§1) These were performed with dual-labelled oligonucleotides mimicking the Plasmodium telomeric sequences FPf1T [FAM-5′(GGGTTTA)3-GGG3′-TAMRA] and FPf8T [FAM-5′ (GGGTTCA)3GGG3′-TAMRA], the Trypanosoma 9 and 11 chromosomic sequence FTrypBT (also named FEBR1T) [FAM-5′[…]3′-TAMRA], the human telomeric sequence F21T [FAM-(GGGTTA)3-GGG3′-TAMRA], and the human duplex sequence FdxT [FAM5′-[…]-hexaethyleneglycol-[…]3′-TAMRA][51]^,[52]. The oligonucleotides were pre-folded in 10 mM lithium cacodylate buffer (pH 7.2), with 10 mM KCl and 90 mM LiCl (K^+condition). The FAM emissions were recorded at 516 nm using a 492-nm excitation wavelength in the absence and presence of a single compound as a function of temperature (25–95 °C) in 96-well microplates by using a Stratagene MX3000P real-time PCR device at a rate of 1 °C·min^−1. Data were normalised between 0 and 1, and the required temperature for half-denaturation of oligonucleotides corresponding to the emission value of 0.5 was taken as the Tm. […] For each compound, three independent experiments were carried out.

[4] = test system: T. brucei brucei AnTat 1.9; experiment: In vitro antitrypanosomal activity, Alamar Blue assay; format: cell-based; conditions: Trypanosoma brucei; slender bloodstream trypomastigotes, AnTat 1.9 strain; read-out: Trypanosoma brucei brucei IC50 values, Trypanos Antat 1.9
Method in brief: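 Viability read-out: resazurin (Alamar Blue) fluorescence, 530 nm excitation/590 nm emission, after 5 h dye exposure following 69 h compound incubation at 37 °C, 5% CO2, 2000 parasites per well, doses in duplicate. IC50 values fitted nonlinearly, three independent runs.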

[5] = test system: human duplex sequence FdxT; experiment: FRET melting experiments, FdxT duplex control; format: binding; conditions: K+ conditions
Protocol: as §1

[6] = test system: L. donovani (MHOM/IN/00/DEVI) promastigotes; experiment: In vitro antileishmanial activity, MTT assay on promastigotes; format: cell-based; conditions: Leishmania donovani, 72 h incubation, ≥10 = no activity noted at the highest concentration tested
Method in brief: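 Log-phase L. donovani MHOM/IN/00/DEVI promastigotes (10^6/ml, Schneider's + 20% FCS) were exposed to graded compound concentrations (DMSO <0.5% v/v) for 72 h at 27 °C, in duplicate. Growth measured by MTT reduction (4 h, A570 nm); IC50 obtained by regression.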

[7] = test system: Trypanosoma 9 and 11 chromosomic sequence FTrypBT (FEBR1T) G-quadruplex; experiment: FRET melting experiments, FtrypBT; format: binding, T. brucei brucei; conditions: K+ conditions
Protocol: as §1

[8] = test system: human telomeric sequence F21T G-quadruplex; experiment: FRET melting experiments, F21T; format: binding; conditions: K+ conditions
Protocol: as §1

[9] = test system: Plasmodium telomeric sequence FPf1T G-quadruplex; experiment: FRET melting experiments, FPf1T; format: binding, P. falciparum; conditions: K+ conditions
Protocol: as §1

[10] = test system: P. falciparum CQ-resistant strain W2; experiment: In vitro antiplasmodial activity, SYBR Green I fluorescence-based method, strain W2; format: cell-based; conditions: Plasmodium falciparum, read-out: P. falciparum strains IC50 values, W2
Protocol: The in vitro antiplasmodial activities were tested over concentrations ranging from […] against culture-adapted P. falciparum reference strains 3D7 and W2. […] The parasites were cultivated in RPMI medium (Sigma-Aldrich, Lyon, France) supplemented with 0.5% Albumax I (Life Technologies Corporation, Paisley, UK), hypoxanthine (Sigma-Aldrich), and gentamicin (Sigma-Aldrich) with human erythrocytes and were incubated at 37 °C in a candle jar, as described previously[43] .The P. falciparum drug susceptibility test was carried out in 96-well flat-bottom sterile plates in a final volume of 250 µl. After 48 h incubation period with the drugs, quantities of DNA in treated and control cultures of parasites in human erythrocytes were quantified using the SYBR Green I (Sigma-Aldrich) fluorescence-based method[44]^,[45]. Briefly, after incubation, plates were frozen at −20 °C until use. Plates were then thawed for 2 h at room temperature, and 100 µl of each homogenised culture was transferred to a well of a 96-well flat-bottom sterile black plate (Nunc, Inc., Rochester, NY) that contained 100 µl of the SYBR Green I lysis buffer (2xSYBR Green, 20 mM Tris base pH 7.5, 5 mM EDTA, 0.008% w/v saponin, 0.08% w/v Triton X-100). […] Plates were incubated for 1 h at room temperature and then read on a fluorescence plate reader (Tecan, Grödig, Austria) using excitation and emission wavelengths of 485 and 535 nm, respectively. IC50 values were calculated by non-linear regression analysis of data from dose-response curves, using TableCurve 2D version 5.0 software (Systat Software, San Jose, CA). IC50 values are reported as means calculated from three independent experiments.

[11] = chloroquine-sensitive strain 3D7, 48 h incubation
[12] = 2 μM compound, 0.2 μM oligonucleotide

Structure (SMILES) | CC50 at 72 h [1] | IC50 [2, 11] | ΔTm FPf8T [3, 12] | IC50 [4] | ΔTm FdxT [5, 12] | IC50 [6] | ΔTm FtrypBT [7, 12] | ΔTm F21T [8, 12] | ΔTm FPf1T [9, 12] | melting point | further results
c1ccc2c(-c3ccc(CNCCN4CCOCC4)cc3)nc(-c3ccc(CNCCN4CCOCC4)cc3)nc2c1 [Compound 3g, 2,4-Bis{4-[(2-morpholinoethyl)aminomethyl]phenyl}quinazoline] | 4080 ± 600 nM | 150 ± 27 nM | 1.2 ± 0.4 °C | 1270 ± 632 nM | 0.3 ± 0.2 °C | ≥ 10000 nM | 1.0 ± 0.5 °C | 4.2 ± 2.1 °C | 1.4 ± 0.1 °C | – | –
OC(c1cc(C(F)(F)F)nc2c(C(F)(F)F)cccc12)C1CCCCN1 (stereo not drawn) [Mefloquine, reference compound] | – | 60 ± 3 nM | – | – | – | – | – | – | – | – | ΔTm FPf8T ([3]; tested at 1 μM): 6.6 ± 2.3 °C; IC50 ([10]; chloroquine-resistant strain W2, 48 h incubation): 16 ± 2 nM; ΔTm F21T ([8]; tested at 1 μM): 2.6 ± 0.5 °C; ΔTm FPf1T ([9]; tested at 1 μM): 3.1 ± 0.5 °C
c1cc(CNCCN2CCOCC2)cc(-c2nc(-c3cccc(CNCCN4CCOCC4)c3)c3ccccc3n2)c1 [Compound 3v, 2,4-Bis{3-[(2-morpholinoethyl)aminomethyl]phenyl}quinazoline] | 6460 ± 1000 nM | 360 ± 126 nM | 0.5 ± 0.4 °C | 1370 ± 658 nM | 0.0 ± 0.0 °C | ≥ 10000 nM | 0.6 ± 0.1 °C | 0.1 ± 0.1 °C | 0.5 ± 0.3 °C | – | –
c1cc(CNCCN2CCOCC2)cc(-c2cc(-c3cccc(CNCCN4CCOCC4)c3)c3ccccc3n2)c1 [Compound 1t, 2,4-Bis{3-[(2-morpholinoethyl)aminomethyl]phenyl}quinoline] | 3930 ± 1100 nM | 230 ± 21 nM | 0.6 ± 0.7 °C | 460 ± 120 nM | −1.6 ± 0.4 °C | ≥ 10000 nM | 0.6 ± 0.4 °C | 0.3 ± 0.3 °C | 0.9 ± 0.2 °C | – | –
c1ccc2c(-c3ccc(CNCCCN4CCOCC4)cc3)nc(-c3ccc(CNCCCN4CCOCC4)cc3)nc2c1 [Compound 3f, 2,4-Bis{4-[(3-morpholinopropyl)aminomethyl]phenyl}quinazoline] | 4520 ± 400 nM | 420 ± 83 nM | 2.9 ± 0.3 °C | 810 ± 63 nM | −0.2 ± 0.2 °C | ≥ 10000 nM | 2.8 ± 0.1 °C | 3.1 ± 0.5 °C | 3.3 ± 0.3 °C | – | –
CCN(CC)CCCC(C)Nc1ccnc2cc(Cl)ccc12 (stereo not drawn) [Chloroquine, reference compound] | – | – | – | – | – | – | – | – | – | – | IC50 ([2]; 3D7, 48 h): 110 ± 10 nM; ΔTm FPf8T ([3]; tested at 1 μM): 2.4 ± 1.2 °C; IC50 ([10]; W2, 48 h): 400 ± 40 nM; ΔTm F21T ([8]; tested at 1 μM): 2.4 ± 1.1 °C; ΔTm FPf1T ([9]; tested at 1 μM): 1.9 ± 0.1 °C
C[n+]1cc(NC(=O)c2ccc3ccc4ccc(C(=O)Nc5cc6ccccc6[n+](C)c5)nc4c3n2)cc2ccccc21 [PhenDC3, reference compound] | – | – | – | – | – | – | – | – | – | – | ΔTm FPf8T ([3]; tested at 0.5 μM): 24.7 ± 0.2 °C; ΔTm FdxT ([5]; tested at 0.5 μM): 0.1 ± 0.2 °C; ΔTm FtrypBT ([7]; tested at 0.5 μM): 19.2 ± 0.2 °C; ΔTm F21T ([8]; tested at 0.5 μM): 26.3 ± 0.1 °C; ΔTm FPf1T ([9]; tested at 0.5 μM): 24.6 ± 0.1 °C
CN(C)CCCNCc1ccc(-c2nc(-c3ccc(CNCCCN(C)C)cc3)c3ccccc3n2)cc1 [Compound 3b, 2,4-Bis{4-[(3-dimethylaminopropyl)aminomethyl]phenyl}quinazoline] | 4010 ± 800 nM | 620 ± 77 nM | 11.2 ± 0.8 °C | 1180 ± 57 nM | 0.1 ± 0.1 °C | ≥ 10000 nM | 10.0 ± 0.4 °C | 13.2 ± 0.3 °C | 11.6 ± 1.1 °C | – | –
c1ccc2c(-c3ccc(CNCCCN4CCOCC4)cc3)cc(-c3ccc(CNCCCN4CCOCC4)cc3)nc2c1 [Compound 1g, 2,4-Bis{4-[(3-morpholinopropyl)aminomethyl]phenyl}quinoline] | 1470 ± 300 nM | 99 ± 7 nM | 3.7 ± 0.6 °C | 380 ± 45 nM | −1.8 ± 0.4 °C | ≥ 10000 nM | 2.0 ± 0.2 °C | 7.1 ± 2.7 °C | 3.7 ± 0.3 °C | – | –
COc1ccc2c(-c3ccc(CNCCCCN4CCN(C)CC4)cc3)cc(-c3ccc(CNCCCCN4CCN(C)CC4)cc3)nc2c1 (as salt: (cooh)2) [Compound 1o, 7-Methoxy-2,4-bis{4-[(4–(4-methylpiperazin-1-yl)butyl)aminomethyl]phenyl}quinoline] | – | – | – | – | – | – | – | – | – | 237 to 239 °C | –
CN1CCN(CCCNCc2cccc(-c3nc(-c4cccc(CNCCCN5CCN(C)CC5)c4)c4ccccc4n3)c2)CC1 (as salt: (cooh)2) [Compound 3t, 2,4-Bis{3-[(3–(4-methylpiperazin-1-yl)propyl)aminomethyl]phenyl}quinazoline] | – | – | – | – | – | – | – | – | – | 252 to 254 °C | –
CN(C)CCCNCc1ccc(-c2cc(-c3ccc(CNCCCN(C)C)cc3)c3ccccc3n2)cc1 (as salt: (cooh)2) [Compound 1b, 2,4-Bis{4-[(3-dimethylaminopropyl)aminomethyl]phenyl}quinoline] | – | – | – | – | – | – | – | – | – | 244 to 246 °C | –
c1cc(CNCCCN2CCOCC2)cc(-c2cc(-c3cccc(CNCCCN4CCOCC4)c3)c3ccccc3n2)c1 [Compound 1s, 2,4-Bis{3-[(3-morpholinopropyl)aminomethyl]phenyl}quinoline] | 2630 ± 500 nM | 210 ± 40 nM | 2.8 ± 0.5 °C | 730 ± 264 nM | −1.5 ± 0.4 °C | ≥ 10000 nM | 1.8 ± 0.7 °C | 2.5 ± 0.1 °C | 3.0 ± 0.4 °C | – | –
COc1ccc2cc(-c3ccc(CNCCCCN(C)C)cc3)nc(-c3ccc(CNCCCCN(C)C)cc3)c2c1 (as salt: (cooh)2) [Compound 2e, 7-Methoxy-1,3-bis{4-[(4-dimethylaminobutyl)aminomethyl]phenyl}isoquinoline] | – | – | – | – | – | – | – | – | – | 157 to 159 °C | –
CN1CCN(CCCCNCc2ccc(-c3cc(-c4ccc(CNCCCCN5CCN(C)CC5)cc4)c4ccccc4n3)cc2)CC1 (as salt: (cooh)2) [Compound 1d, 2,4-Bis{4-[(4–(4-methylpiperazin-1-yl)butyl)aminomethyl]phenyl}quinoline] | – | – | – | – | – | – | – | – | – | 225 to 227 °C | –
c1cc(CNCCN2CCOCC2)cc(-c2nc(-c3cccc(CNCCN4CCOCC4)c3)c3ccccc3n2)c1 (as salt: (cooh)2) [Compound 3v, 2,4-Bis{3-[(2-morpholinoethyl)aminomethyl]phenyl}quinazoline] | – | – | – | – | – | – | – | – | – | 234 to 236 °C | –
